# Assay results published in article PMC10169810, “Ligand-induced activation and G protein coupling of prostaglandin F2α receptor” (Nature Communications, 2023).
# Several values for one entry are separate records, joined by “and”; a condition that tells them apart may be missing. Equal entries are not always repeated.
# Tests used:
# FP S33A = biological target: T1, FP S33A (Homo sapiens, UniProt P43088, S33A); assay: IP-One accumulation assay, FP S33A mutant; format: cell-based; details: S33 to alanine vs WT FP
# T1 construct: Flag; expressed in transfected cells; host or cells: AD293 cells
# T1 sequence (P43088 whole entry S33A): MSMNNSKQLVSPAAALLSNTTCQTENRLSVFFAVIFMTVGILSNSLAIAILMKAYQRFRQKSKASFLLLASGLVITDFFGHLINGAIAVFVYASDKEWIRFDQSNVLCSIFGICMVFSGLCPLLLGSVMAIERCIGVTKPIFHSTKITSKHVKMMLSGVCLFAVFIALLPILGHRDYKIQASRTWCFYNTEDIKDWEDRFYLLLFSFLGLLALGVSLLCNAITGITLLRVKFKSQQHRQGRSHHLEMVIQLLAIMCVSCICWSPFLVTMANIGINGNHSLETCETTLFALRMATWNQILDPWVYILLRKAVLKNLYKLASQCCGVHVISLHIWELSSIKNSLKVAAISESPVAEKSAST
# Protocol: (§1) IP-One production was measured using the IP-One HTRF kit (Cisbio)[50]. Briefly, AD293 cells (Agilent) were grown to a density of 400,000–500,000 cells per mL and then […] with separate plasmids at a suitable concentration. The culture was collected by centrifugation 24 h after incubation at 37 °C in 5% CO2 with a Stimulation Buffer. The cell suspension was then dispensed in a white 384-well plate at a volume of 7 μl per well before adding 7 μl of ligands. The mixture was incubated for 1 h at 37 °C. IP-One-d2 and anti-IP-One Cryptate dissolved in Lysis Buffer (3 μl each) were subsequently added and incubated for 15-30 min at room temperature before measurement. Intracellular IP-One measurement was carried out with the IP-One HTRF kit and EnVision multi-plate reader (PerkinElmer) according to the manufacturer’s instructions. Data were normalized to the baseline response of the ligand. pEC50 Emin, and Emax for each curve were calculated by GraphPad Prism 8.0. ∆pEC50 equals pEC50 of agonists to specific Mutant minus pEC50 of agonists to WT. Data are presented as mean values ± SEM; n = 3 independent samples; n.s. no significant; *p < 0.05; **p < 0.01; ***p < 0.001.
# FP Y92A = biological target: T2, FP Y92A (Homo sapiens, UniProt P43088, Y92A); assay: IP-One accumulation assay, FP Y92A mutant; format: cell-based; details: Y92 mutant (alanine) vs WT FP
# T2 construct: Flag; expressed in transfected cells; host or cells: AD293 cells
# T2 sequence (P43088 whole entry Y92A): as the sequence (P43088 whole entry S33A) above, with A33S, Y92A counted along it
# Protocol: as §1
# FP M115A = biological target: T3, FP M115A (Homo sapiens, UniProt P43088, M115A); assay: IP-One accumulation assay, FP M115A mutant; format: cell-based; details: M115 to alanine vs WT FP
# T3 construct: Flag; expressed in transfected cells; host or cells: AD293 cells
# T3 sequence (P43088 whole entry M115A): as the sequence (P43088 whole entry S33A) above, with A33S, M115A counted along it
# Protocol: as §1
# FP S118A = biological target: T4, FP S118A (Homo sapiens, UniProt P43088, S118A); assay: IP-One accumulation assay, FP S118A mutant; format: cell-based
# T4 construct: Flag; expressed in transfected cells; host or cells: AD293 cells
# T4 sequence (P43088 whole entry S118A): as the sequence (P43088 whole entry S33A) above, with A33S, S118A counted along it
# Protocol: as §1
# FP T184A = biological target: T5, FP T184A (Homo sapiens, UniProt P43088, T184A); assay: IP-One accumulation assay, FP T184A mutant; format: cell-based; details: T184 mutant (alanine) vs WT FP
# T5 construct: Flag; expressed in transfected cells; host or cells: AD293 cells
# T5 sequence (P43088 whole entry T184A): as the sequence (P43088 whole entry S33A) above, with A33S, T184A counted along it
# Protocol: as §1
# FP W185A = biological target: T6, FP W185A (Homo sapiens, UniProt P43088, W185A); assay: IP-One accumulation assay, FP W185A mutant; format: cell-based; details: W185A mutant vs WT FP; IP1 accumulation, AD293 cells; single values of n = 3 independent samples
# T6 construct: Flag; expressed in transfected cells; host or cells: AD293 cells
# T6 sequence (P43088 whole entry W185A): as the sequence (P43088 whole entry S33A) above, with A33S, W185A counted along it
# Protocol: as §1
# FP F205A = biological target: T7, FP F205A (Homo sapiens, UniProt P43088, F205A); assay: IP-One accumulation assay, FP F205A mutant; format: cell-based; details: F205A mutant vs WT FP; IP1 accumulation, AD293 cells; single values of n = 3 independent samples
# T7 construct: Flag; expressed in transfected cells; host or cells: AD293 cells
# T7 sequence (P43088 whole entry F205A): as the sequence (P43088 whole entry S33A) above, with A33S, F205A counted along it
# Protocol: as §1
# FP F265A = biological target: T8, FP F265A (Homo sapiens, UniProt P43088, F265A); assay: IP-One accumulation assay, FP F265A mutant; format: cell-based; details: F265A mutant vs WT FP; IP1 accumulation, AD293 cells; single values of n = 3 independent samples
# T8 construct: Flag; expressed in transfected cells; host or cells: AD293 cells
# T8 sequence (P43088 whole entry F265A): as the sequence (P43088 whole entry S33A) above, with A33S, F265A counted along it
# Protocol: as §1
# FP I290A = biological target: T9, FP I290A (Homo sapiens, UniProt P43088, L290A); assay: IP-One accumulation assay, FP I290A mutant; format: cell-based; details: I290A mutant vs WT FP; IP1 accumulation, AD293 cells; single values of n = 3 independent samples
# T9 construct: Flag; expressed in transfected cells; host or cells: AD293 cells
# T9 sequence (P43088 whole entry L290A): as the sequence (P43088 whole entry S33A) above, with A33S, L290A counted along it
# Protocol: as §1
# FP R291A = biological target: T10, FP R291A (Homo sapiens, UniProt P43088, R291A); assay: IP-One accumulation assay, FP R291A mutant; format: cell-based; details: R291 mutant (alanine) vs WT FP
# T10 construct: Flag; expressed in transfected cells; host or cells: AD293 cells
# T10 sequence (P43088 whole entry R291A): as the sequence (P43088 whole entry S33A) above, with A33S, R291A counted along it
# Protocol: as §1
# FP T294A = biological target: T11, FP T294A (Homo sapiens, UniProt P43088, T294A); assay: IP-One accumulation assay, FP T294A mutant; format: cell-based
# T11 construct: Flag; expressed in transfected cells; host or cells: AD293 cells
# T11 sequence (P43088 whole entry T294A): as the sequence (P43088 whole entry S33A) above, with A33S, T294A counted along it
# Protocol: as §1
# FP Q297A = biological target: T12, FP Q297A (Homo sapiens, UniProt P43088, Q297A); assay: IP-One accumulation assay, FP Q297A mutant; format: cell-based; details: Q297A mutant vs WT FP; IP1 accumulation, AD293 cells; single values of n = 3 independent samples
# T12 construct: Flag; expressed in transfected cells; host or cells: AD293 cells
# T12 sequence (P43088 whole entry Q297A): as the sequence (P43088 whole entry S33A) above, with A33S, Q297A counted along it
# Protocol: as §1
# FP I298A = biological target: T13, FP I298A (Homo sapiens, UniProt P43088, I298A); assay: IP-One accumulation assay, FP I298A mutant; format: cell-based; details: I298A mutant vs WT FP; IP1 accumulation, AD293 cells; single values of n = 3 independent samples
# T13 construct: Flag; expressed in transfected cells; host or cells: AD293 cells
# T13 sequence (P43088 whole entry I298A): as the sequence (P43088 whole entry S33A) above, with A33S, I298A counted along it
# Protocol: as §1
# FP S118F = biological target: T14, FP S118F (Homo sapiens, UniProt P43088, S118F); assay: IP-One accumulation assay, FP S118F mutant; format: cell-based; details: S118F mutant vs WT FP; IP1 accumulation, AD293 cells; single values of n = 3 independent samples
# T14 construct: Flag; expressed in transfected cells; host or cells: AD293 cells
# T14 sequence (P43088 whole entry S118F): as the sequence (P43088 whole entry S33A) above, with A33S, S118F counted along it
# Protocol: as §1
# FP S118N = biological target: T15, FP S118N (Homo sapiens, UniProt P43088, S118N); assay: IP-One accumulation assay, FP S118N mutant; format: cell-based
# T15 construct: Flag; expressed in transfected cells; host or cells: AD293 cells
# T15 sequence (P43088 whole entry S118N): as the sequence (P43088 whole entry S33A) above, with A33S, S118N counted along it
# Protocol: as §1
# FP = system: FP; parameters: method as in PMID 10785618; details: cited from earlier work
# EP1 = system: EP1; parameters: method as in PMID 10785618; details: cited from earlier work
# EP3 = system: EP3; parameters: method as in PMID 10785618; details: cited from earlier work
structure (smiles),measurement,setting,value
"O=C(O)CCC/C=C\C[C@@H]1[C@@H](CC[C@@H](O)CCc2ccccc2)[C@H](O)C[C@@H]1O [LTPA, Latanoprost acid]",effect of mutation on agonist affinity / potency (in words),FP S33A,significantly decreased the potency
same,effect of mutation on agonist activity / potency (in words),FP Y92A,significantly decreased the potency
same,effect of mutation on agonist potency (in words),FP M115A,significantly decreased the potency
same,∆pEC50 (pEC50 of agonist to mutant minus pEC50 to WT),"FP S118A; S118A mutant vs WT FP, IP1 accumulation, AD293 cells, single values of n = 3 independent samples",-1.0 and -0.9
same,effect of mutation on agonist potency (in words),FP S118A; S118 to alanine vs WT FP,significantly reduced the potency
same,effect of mutation on agonist activity / potency (in words),FP T184A,significantly decreased the potency
same,∆pEC50 (pEC50 of agonist to mutant minus pEC50 to WT),FP W185A,-2.9 and -2.7
same,∆pEC50 (pEC50 of agonist to mutant minus pEC50 to WT),FP F205A,-2.3 and -2.1 and -2.2
same,∆pEC50 (pEC50 of agonist to mutant minus pEC50 to WT),FP F265A,-2.5 and -2.2
same,∆pEC50 (pEC50 of agonist to mutant minus pEC50 to WT),FP I290A,-1.1 and -1.3 and -1.0
same,effect of mutation on agonist activity / potency (in words),FP R291A,significantly decreased the potency
same,∆pEC50 (pEC50 of agonist to mutant minus pEC50 to WT),"FP T294A; T294A mutant vs WT FP, IP1 accumulation, AD293 cells, single values of n = 3 independent samples",-2.0 and -1.8 and -1.9
same,effect of mutation on agonist affinity / potency (in words),FP T294A; T294 to alanine vs WT FP,significantly decreased the potency
same,∆pEC50 (pEC50 of agonist to mutant minus pEC50 to WT),FP Q297A,-1.5 and -1.4
same,∆pEC50 (pEC50 of agonist to mutant minus pEC50 to WT),FP I298A,-1.8 and -2.1
same,∆pEC50 (pEC50 of agonist to mutant minus pEC50 to WT),FP S118F,-1.0 and -0.9 and -0.8
same,∆pEC50 (pEC50 of agonist to mutant minus pEC50 to WT),"FP S118N; S118N mutant vs WT FP, IP1 accumulation, AD293 cells, single values of n = 3 independent samples",-1.0 and -1.1 and -1.2
same,effect of mutation on agonist potency (in words),FP S118N; S118 to asparagine vs WT FP,significantly reduced the potency
same,selectivity enhancement compared to PGF2α,FP; FP versus EP1 and EP3,more than 100 times
same,EC50,FP; FP,0.0036 µM
same,EC50,EP1,6.9 µM
same,EC50,EP3,17 µM
